Holding throughout (type): functional
One assay has as its system Klebsiella pneumoniae. Kind of assay: Antimicrobial activity against Klebsiella pneumoniae A137 after overnight incubation by microdilution broth susceptibility assay.
The subject of another assay is Salmonella enteritidis. In words: Antimicrobial activity against Salmonella enterica subsp. enterica serovar Enteritidis ATCC 1376 after overnight incubation by microdilution broth susceptibility assay. Background: In broth dilution the organism is exposed to a series of concentrations in liquid medium.
Another assay has as its system Escherichia coli. In words: Antimicrobial activity against Escherichia coli B3704 after overnight incubation by microdilution broth susceptibility assay.
The test system of the next assay is Streptococcus pyogenes. Kind of assay: Antimicrobial activity against Streptococcus pyogenes ATCC 176 after overnight incubation by microdilution broth susceptibility assay.
The test system of the next assay is Proteus vulgaris. Kind of assay: Antimicrobial activity against Proteus vulgaris Kuk. 1329 after overnight incubation by microdilution broth susceptibility assay.
The subject of another assay is Bacillus subtilis. Kind of assay: Antimicrobial activity against Bacillus subtilis ATCC 6633 after overnight incubation by microdilution broth susceptibility assay.
Another assay has as its system Enterococcus faecalis. In words: Antimicrobial activity against Enterococcus faecalis ATCC 29122 after overnight incubation by microdilution broth susceptibility assay.
In the next assay the test system is Pseudomonas aeruginosa. In words: Antimicrobial activity against Pseudomonas aeruginosa ATCC 9027 after overnight incubation by microdilution broth susceptibility assay.
A further assay deals with Staphylococcus aureus. Kind of assay: Antimicrobial activity against Staphylococcus aureus ATCC 29213 after overnight incubation by microdilution broth susceptibility assay.
For the next assay, the system named is Xanthomonas campestris. In words: Antimicrobial activity against Xanthomonas campestris A235 after overnight incubation by microdilution broth susceptibility assay.

Converted amounts (≈) assume the structure as drawn. The source made the active and inactive calls. The calls are words filed in the database; no cut-off is given here.

What is called MIC is the lowest concentration that inhibits growth of the organism.

As for `CCNC(=O)c1ccc(-n2nc(C(=O)NCC)c(C(=O)c3ccccc3)c2-c2ccccc2)cc1`, the MIC with Klebsiella pneumoniae amounted to 137 µM (≈ 63.9 µg/mL); in the assay with Escherichia coli, 137 µM (≈ 63.9 µg/mL); with Bacillus subtilis it was 274 µM (≈ 128 µg/mL); with Xanthomonas campestris it was 274 µM (≈ 128 µg/mL). Moreover, the MIC result in the assay with Salmonella enteritidis, with Streptococcus pyogenes, in the assay with Proteus vulgaris, in the assay with Enterococcus faecalis, in the assay on Pseudomonas aeruginosa and in the assay on Staphylococcus aureus was “inactive” in each case.

In the case of `O=C(O)c1ccc(N/N=C(\c2ccccc2)c2c(-c3ccccc3)nn(-c3ccc(C(=O)O)cc3)c(=O)c2O)cc1`, the MIC in the assay on Klebsiella pneumoniae and in the assay on Escherichia coli was 117 µM (≈ 63.9 µg/mL) each time. The MIC result with Salmonella enteritidis, in the assay with Streptococcus pyogenes, in the assay with Proteus vulgaris, in the assay with Bacillus subtilis, in the assay with Enterococcus faecalis and with Pseudomonas aeruginosa was “inactive” in each case. For the same molecule, the MIC entry in the assay on Staphylococcus aureus and in the assay on Xanthomonas campestris was “inactive” in each case.

Values taken from ChEMBL document CHEMBL3045104, “Synthesis and antibacterial activity of 4-benzoyl-1-(4-carboxy-phenyl)-5-phenyl-1H-pyrazole-3-carboxylic acid and derivatives” (2009).
